Experimental data reported in PubChem BioAssay (NCI).
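These data come from cells grown in 96-well plates and exposed to compound for 48 hours at five concentrations. TGI denotes the concentration required for complete inhibition of growth.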

What was measured:
Test in all cases: NCI-60 cell line screen, 48 h
SF-268 CNS = system: SF-268 CNS
IGROV1 ovarian = system: IGROV1 ovarian
HT29 colon = system: HT29 colon
OVCAR-8 ovarian = system: OVCAR-8 ovarian
SK-MEL-5 melanoma = system: SK-MEL-5 melanoma
OVCAR-4 ovarian = system: OVCAR-4 ovarian
NCI-H226 lung = system: NCI-H226 lung
CAKI-1 renal = system: CAKI-1 renal
MDA-MB-435 = system: MDA-MB-435
DU-145 prostate = system: DU-145 prostate

Row | SMILES | TGI (SF-268 CNS) [µM] | TGI (IGROV1 ovarian) [µM] | TGI (HT29 colon) [µM] | TGI (OVCAR-8 ovarian) [µM] | TGI (SK-MEL-5 melanoma) [µM] | TGI (OVCAR-4 ovarian) [µM] | TGI (NCI-H226 lung) [µM] | TGI (CAKI-1 renal) [µM] | TGI (MDA-MB-435) [µM] | TGI (DU-145 prostate) [µM]
1 | CN1CCCCC(C(O)(c2ccccc2)c2ccccc2)C1=O (centres undefined) | > 100 | > 100 | > 100 | > 100 | > 100 | > 100 | > 100 |  |  | 
2 | COC(=O)c1cccc(C(=O)OC)c1 | > 100 |  | > 100 |  |  | > 100 | > 100 | > 100 |  | 
3 | O=c1[nH]c2ccccc2c2oc(-c3ccccc3)nc12 | 71.3 | > 100 | > 100 | 59.1 | > 100 | > 100 | > 100 | 34.4 | 38 | 
4 | OCCO[P+]1(OCCO)n2c3ccc2C(c2ccccc2)=C2C=CC(=N2)C(c2ccccc2)=c2ccc(n21)=C(c1ccccc1)C1=NC(=C3c2ccccc2)C=C1 | 2.15 |  | 3.36 | 0.17 | 0.164 | 2.17 |  | 2.59 | 0.132 | 1.74
5 | NC(=O)NCCCC(NC(=O)OCCCCCn1ccc(=O)[nH]c1=O)C(=O)O (centres undefined) | > 100 | > 100 | > 100 | > 100 |  | > 100 | > 100 | > 100 | > 100 | > 100
6 | COC(=O)CCN(CCC(=O)OC)C1CC1 | > 100 | > 100 | > 100 | > 100 | > 100 | > 100 | > 100 |  | > 100 | > 100
7 | Nc1nc(SCCC/C=C/I)nc2c1ncn2C1OC(CO)C(O)C1O (centres undefined) | > 202 | > 202 | > 202 | > 202 | > 202 | > 202 | > 202 | > 202 |  | 
8 | O=C1/C(=C/c2ccco2)NC(=S)N1CN1CCOCC1 | > 100 | > 100 | > 100 | > 100 | > 100 | > 100 | > 100 |  | > 100 | > 100
9 | COc1ccc2c(c1)CC[C@@H]1[C@@H]2CC[C@]2(C)C(=O)/C(=C/c3cc(OC)c(OC)c(OC)c3)C[C@@H]12 |  |  |  |  | > 100 | > 100 |  | 63.3 | > 100 | > 100
10 | O=C(O)c1ccc(Nc2nc3ccccc3nc2C(=O)O)cc1 | > 100 | > 100 | > 100 | > 100 | > 100 | > 100 |  | > 100 | > 100 | > 100
11 | N#Cc1c(N2CCN(c3ccc([N+](=O)[O-])cc3)CC2)[n+](=O)c2ccc(Cl)cc2n1[O-] | 10.9 | 2.01 | 7.31 | > 22.9 |  | 9.52 | 13.8 | 2.7 | 8.07 | 6.7
12 | COC1/C=C/C(C)C(C(C)C(OC)C(C)CCC(=O)C(C)C(C/C=C/N(C)C=O)OC)OC(=O)/C=C/C=C(\C)CC(OC)C(OC)C2=CC(=O)O[C@@H](C(C)C(OC)CC(OC)/C=C/C(C)C(O)C1)[C@H]2O (some centres undefined) | 0.407 |  | 2.15 | 0.829 | 0.206 | 0.365 | 0.244 |  | 0.977 | 
13 | CC1CCC2(CC1)N=C1CCC(C)CC1C1(CCC(C)CC1)N2 (centres undefined) |  | > 100 | > 100 | > 100 | > 100 | > 100 | > 100 | > 100 | > 100 | > 100
14 | CCCCCCOc1ccc(NC2=C(Cl)C(=O)c3ncccc3C2=O)cc1 | 4.07 | 7.85 | > 10 | > 10 | 2.92 |  | > 10 |  | 3.27 | 2.83
15 | COc1cc(C2S/C(=C/c3ccccc3)C(=O)N2c2cccc([N+](=O)[O-])c2)cc(OC)c1OC (centres undefined) | > 100 |  | > 100 | > 100 | > 100 | > 100 | > 100 | > 100 | 41.2 | 
16 | Clc1ncnc2c1ncn2CCCCCCCCCCCCn1cnc2c(Cl)ncnc21 | 27.7 | 15.7 | 21.5 | 23.8 | 17.5 | 23.3 | 24.5 | 7.68 |  | 
17 | Cn1ccc(C(=O)NCCCCCNC(=O)c2ccn(C)c(=O)c2O)c(O)c1=O | > 100 |  | > 100 | > 100 | > 100 | > 100 | > 100 | > 100 | > 100 | > 100
18 | O=C(c1ccccc1)N1C(=S)N(c2ccc([N+](=O)[O-])cc2)C(=Nc2ccccc2)C1=Nc1ccccc1 | > 100 | > 100 | > 100 | > 100 | > 100 |  | > 100 | > 100 | > 100 | > 100
19 | Cc1ccc2nc(Cl)c(/C=N/N3C(=O)/C(=C/c4ccc(N(C)C)cc4)N=C3c3ccccc3)cc2c1 | > 100 | > 100 | > 100 | > 100 | > 100 | > 100 |  | > 100 | 65.8 | > 100
20 | COc1cc(CNc2nc3cc(C(F)(F)F)ccc3nc2C)cc(OC)c1OC | > 100 | 33.3 | 33.6 | > 100 | 46.9 |  |  | 96.4 | 55.5 | > 100
21 | COc1cc(-c2nc3nc(N4CCN(C)CC4)ccc3[nH]2)c(OC)c2[nH]c(COC(C)=O)nc12 | > 100 | > 100 | 61.8 | > 100 | 35.6 | > 100 |  | > 100 | > 100 | > 100
22 | COc1nc2[nH]ccc2c(=O)n1C | > 100 | > 100 | > 100 | > 100 | > 100 | 41.5 |  | 57.6 |  | 
23 | CC(=O)NC1=C(NCc2ccc(Cl)cc2)C(=O)c2ccccc2C1=O | > 50 | 49.6 | > 50 | 14.1 | 11.4 | 13.4 | 26.1 |  |  | 
24 | COc1ccc(C2(C3c4cc(OC)c(OC)cc4CCN3C)SCCCS2)cc1O (centres undefined) | > 100 | > 100 | > 100 | > 100 | > 100 | > 100 |  | > 100 | > 100 | > 100
